- melting point: 230 to 231 °C
Structure (SMILES): Oc1cccc(OCC(O)CNCc2ccc3c(c2)OCO3)c1 (stereo not shown) [Compound 1e, N-((1,3-Benzodioxol-5-yl)methyl)-2-hydroxy-3-(3-hydroxyphenoxy)propylamine]
